Reference: ChEMBL document CHEMBL1201862, “PubChem BioAssay data set” (2004)
The source made the active and inactive calls.

Legend:
Hexokinase-1 = Hexokinase-1 (Homo sapiens, UniProt P19367); assay: SAR analysis of small molecule inhibitors of hexokinase domain containing I (HKDC1) in the hexokinase 1 selectivity assay. [Related pubchem assays (depositor defined):AID493160, AID493190]; type: functional
Hexokinase HKDC1 = target: T1, Hexokinase HKDC1 (Homo sapiens, UniProt Q2TB90); assay: SAR analysis of small molecule inhibitors of hexokinase domain containing I (HKDC1). [Related pubchem assays (depositor defined):AID493160, AID493190]; type: functional
T1 sequence (Q2TB90 whole entry): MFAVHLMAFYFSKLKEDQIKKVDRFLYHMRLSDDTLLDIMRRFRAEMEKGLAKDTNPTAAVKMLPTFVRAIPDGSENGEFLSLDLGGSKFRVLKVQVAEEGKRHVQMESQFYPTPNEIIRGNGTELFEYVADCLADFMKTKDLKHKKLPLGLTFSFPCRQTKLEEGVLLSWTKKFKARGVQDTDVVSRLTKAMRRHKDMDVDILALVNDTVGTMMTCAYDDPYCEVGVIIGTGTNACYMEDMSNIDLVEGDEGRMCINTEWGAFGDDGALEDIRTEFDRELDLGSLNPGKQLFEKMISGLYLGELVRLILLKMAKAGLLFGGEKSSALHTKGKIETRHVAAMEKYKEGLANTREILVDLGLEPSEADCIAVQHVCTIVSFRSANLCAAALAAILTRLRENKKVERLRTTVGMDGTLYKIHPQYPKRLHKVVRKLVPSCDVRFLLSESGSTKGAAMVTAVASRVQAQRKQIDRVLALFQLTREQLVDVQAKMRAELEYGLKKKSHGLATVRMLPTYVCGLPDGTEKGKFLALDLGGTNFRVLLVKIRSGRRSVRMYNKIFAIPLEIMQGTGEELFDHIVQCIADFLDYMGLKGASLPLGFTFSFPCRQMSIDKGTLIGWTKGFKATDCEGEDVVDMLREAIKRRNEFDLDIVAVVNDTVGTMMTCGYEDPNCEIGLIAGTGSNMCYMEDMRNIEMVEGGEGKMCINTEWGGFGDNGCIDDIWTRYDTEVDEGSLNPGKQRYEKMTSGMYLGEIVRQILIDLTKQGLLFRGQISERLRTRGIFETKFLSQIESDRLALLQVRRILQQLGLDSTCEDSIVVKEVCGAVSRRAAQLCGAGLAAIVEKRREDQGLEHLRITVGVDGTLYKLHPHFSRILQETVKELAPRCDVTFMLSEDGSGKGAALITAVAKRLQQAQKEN

Major prion protein = Major prion protein (Homo sapiens, UniProt P04156); type: functional, cell-based
INS1 [1] = assay: protection of INS-1E cells from cytokine death, dose response, ATP luminescence, dry powder (AID 488844); type: functional, cell-based; settings: Rattus norvegicus
[2] = inhibitors of cytokine-induced nitrite release, dose response, cell-based, Griess absorbance, INS-1E, dry powder, set 3 (AID 488870); type: functional; settings: Rattus norvegicus
INS1 [3] = assay: protection from cytokine-driven beta-cell apoptosis, dose response, JC-1 fluorescence, INS-1E, dry powder, set 2 (AID 488867); type: functional, cell-based; settings: Rattus norvegicus
INS1 [4] = assay: protection from cytokine-induced mitochondrial depolarization, dose response, cell-based, INS-1E, JC-1 fluorescence ratio, dry powder (AID 488931); type: functional; settings: Rattus norvegicus
Caspase-3 = target: T2, Caspase-3 (Homo sapiens, UniProt P42574); assay: caspase-3 inhibitors as off-family protease, SAR follow-up, selectivity assay for SENP protease inhibitor project, biochemical, luminescence, set 2 (AID 588599); type: functional
T2 sequence (P42574 whole entry): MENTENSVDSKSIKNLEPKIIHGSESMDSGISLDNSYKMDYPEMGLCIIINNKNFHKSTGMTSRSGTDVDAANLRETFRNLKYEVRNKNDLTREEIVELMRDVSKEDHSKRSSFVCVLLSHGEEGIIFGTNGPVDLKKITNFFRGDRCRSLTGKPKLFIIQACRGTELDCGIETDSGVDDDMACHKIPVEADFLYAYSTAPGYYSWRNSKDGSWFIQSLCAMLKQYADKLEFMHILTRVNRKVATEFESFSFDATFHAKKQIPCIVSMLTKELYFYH

[5] = target: T3, Sentrin-specific protease 8 (Homo sapiens, UniProt Q96LD8); assay: SENP8 protease inhibitors, SAR follow-up, biochemical, luminescence, set 2 (AID 588601); type: functional
T3 sequence (Q96LD8 whole entry): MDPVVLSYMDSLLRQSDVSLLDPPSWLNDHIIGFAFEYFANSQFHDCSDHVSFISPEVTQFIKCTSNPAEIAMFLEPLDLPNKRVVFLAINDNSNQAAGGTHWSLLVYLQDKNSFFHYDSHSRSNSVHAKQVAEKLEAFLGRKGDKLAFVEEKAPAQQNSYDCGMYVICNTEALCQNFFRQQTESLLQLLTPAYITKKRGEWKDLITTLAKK

[6] = target: T4, Sentrin-specific protease 7 (Homo sapiens, UniProt Q9BQF6); assay: SENP7 protease inhibitors, SAR follow-up, biochemical, luminescence, set 2 (AID 588600); type: functional
T4 sequence (Q9BQF6 whole entry): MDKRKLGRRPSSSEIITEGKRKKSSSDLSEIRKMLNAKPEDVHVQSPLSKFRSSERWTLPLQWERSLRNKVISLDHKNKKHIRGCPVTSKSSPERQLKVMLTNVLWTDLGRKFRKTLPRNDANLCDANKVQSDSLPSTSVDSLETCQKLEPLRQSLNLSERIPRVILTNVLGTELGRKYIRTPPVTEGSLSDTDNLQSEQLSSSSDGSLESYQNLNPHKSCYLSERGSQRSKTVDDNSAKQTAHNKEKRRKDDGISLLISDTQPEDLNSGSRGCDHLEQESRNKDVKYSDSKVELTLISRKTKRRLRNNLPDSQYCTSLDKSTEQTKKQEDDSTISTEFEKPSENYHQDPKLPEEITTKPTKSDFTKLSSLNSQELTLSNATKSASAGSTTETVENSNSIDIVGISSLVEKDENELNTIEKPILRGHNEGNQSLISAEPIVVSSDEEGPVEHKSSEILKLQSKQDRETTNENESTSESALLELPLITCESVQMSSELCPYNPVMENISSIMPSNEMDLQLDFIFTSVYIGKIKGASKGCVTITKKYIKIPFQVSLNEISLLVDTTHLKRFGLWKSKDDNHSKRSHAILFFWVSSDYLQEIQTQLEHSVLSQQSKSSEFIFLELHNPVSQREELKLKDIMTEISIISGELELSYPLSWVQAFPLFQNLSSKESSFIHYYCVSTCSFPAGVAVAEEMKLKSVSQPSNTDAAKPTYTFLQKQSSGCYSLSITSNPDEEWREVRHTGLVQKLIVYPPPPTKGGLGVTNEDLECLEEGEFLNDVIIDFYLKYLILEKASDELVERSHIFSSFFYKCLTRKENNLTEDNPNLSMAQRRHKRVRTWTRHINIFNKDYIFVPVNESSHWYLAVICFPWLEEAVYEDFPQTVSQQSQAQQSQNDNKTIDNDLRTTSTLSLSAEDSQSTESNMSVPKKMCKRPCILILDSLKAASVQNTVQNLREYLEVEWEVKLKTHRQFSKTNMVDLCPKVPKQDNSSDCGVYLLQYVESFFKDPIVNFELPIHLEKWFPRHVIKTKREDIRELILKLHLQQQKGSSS

[7] = target: T5, Sentrin-specific protease 6 (Homo sapiens, UniProt Q9GZR1); assay: SENP6 protease inhibitors, SAR follow-up, biochemical, luminescence, set 2 (AID 588598); type: functional
T5 sequence (Q9GZR1 whole entry): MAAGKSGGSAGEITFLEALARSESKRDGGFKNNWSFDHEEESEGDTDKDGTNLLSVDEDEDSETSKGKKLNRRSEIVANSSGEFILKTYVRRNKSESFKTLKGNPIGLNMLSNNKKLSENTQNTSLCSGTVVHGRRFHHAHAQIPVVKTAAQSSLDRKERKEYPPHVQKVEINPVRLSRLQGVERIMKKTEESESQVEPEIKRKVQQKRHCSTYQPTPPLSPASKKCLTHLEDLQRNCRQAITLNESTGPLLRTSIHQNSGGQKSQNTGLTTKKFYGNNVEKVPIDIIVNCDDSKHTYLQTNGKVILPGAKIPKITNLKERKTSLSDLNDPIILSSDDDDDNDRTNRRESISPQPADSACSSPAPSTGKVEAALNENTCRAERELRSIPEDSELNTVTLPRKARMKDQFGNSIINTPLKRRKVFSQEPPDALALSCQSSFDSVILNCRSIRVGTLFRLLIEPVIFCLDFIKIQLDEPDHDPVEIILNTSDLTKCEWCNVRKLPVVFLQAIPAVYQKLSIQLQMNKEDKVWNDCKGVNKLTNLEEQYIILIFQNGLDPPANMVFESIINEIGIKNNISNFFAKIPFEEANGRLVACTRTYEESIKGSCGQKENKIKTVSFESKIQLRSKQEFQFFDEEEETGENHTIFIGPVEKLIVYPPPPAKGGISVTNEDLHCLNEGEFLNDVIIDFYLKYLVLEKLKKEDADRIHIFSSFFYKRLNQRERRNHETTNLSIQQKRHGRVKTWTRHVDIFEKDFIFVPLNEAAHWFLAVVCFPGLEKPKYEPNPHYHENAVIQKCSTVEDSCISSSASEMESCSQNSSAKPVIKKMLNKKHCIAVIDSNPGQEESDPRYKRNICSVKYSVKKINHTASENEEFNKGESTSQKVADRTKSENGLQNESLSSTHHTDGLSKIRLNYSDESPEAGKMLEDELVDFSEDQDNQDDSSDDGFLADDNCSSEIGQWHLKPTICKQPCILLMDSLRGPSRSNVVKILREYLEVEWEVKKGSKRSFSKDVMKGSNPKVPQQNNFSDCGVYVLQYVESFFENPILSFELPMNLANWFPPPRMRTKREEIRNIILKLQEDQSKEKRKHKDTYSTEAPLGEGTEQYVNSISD

Q: Which IC50 (Hexokinase-1) does the source give for `O=C(CSc1ncnc2ccccc12)Nc1cccc(S(=O)(=O)N2CCOCC2)c1` here?
A: > 80 µM (inactive)

Q: What about the IC50 (Hexokinase HKDC1) of the same molecule?
A: > 80 µM (inactive)

Q: And the IC50 (Major prion protein)?
A: 9.12 µM (active)

Q: What about the IC50 (cells) of the same molecule?
A: > 138 µM (inactive)

Q: Which AC50 (INS1 [1]) does the source give for `COc1ccc(S(=O)(=O)N(C)C[C@H]2Oc3c(NC(=O)Nc4cccc5ccccc45)cccc3C(=O)N([C@H](C)CO)C[C@@H]2C)cc1` here?
A: 21.9 µM (active)

Q: And the AC50 [2]?
A: 63.9 µM (active)

Q: What about the AC50 (INS1 [3]) of the same molecule?
A: 43.4 µM (active)

Q: What about the AC50 (INS1 [4]) of the same molecule?
A: 33.7 µM (active)

Q: Which IC50 (Caspase-3) does the source give for `Cc1[nH]c2ccccc2c1C(=O)C(=O)N1CCCCCC1` here?
A: > 99 µM (inactive)

Q: And the IC50 [5]?
A: > 99 µM (inactive)

Q: And the IC50 [6]?
A: > 99 µM (inactive)

Q: And the IC50 [7]?
A: > 99 µM (inactive)
